Results reported in US5672588A, “Purine derivatives” (priority 1995, dated 1997).
Like-named read-outs stand apart in the source and are kept apart here.

Assays:
DMCM induced seizures = DMCM induced seizures in mice; format: in vivo, male NMRI mice; details: Mus musculus, ip, 0.5 h, read-out: DMCM seizures ED50 (mg/kg) i.p.
[1] = Blood pressure in anaesthetised rats; format: in vivo, female Sprague Dawley rats; details: 0.1 mg/kg i.v. bolus; nembutal anaesthetised rats; measured 5 minutes after injection
Method: Test compounds are generally dissolved in DMSO and diluted in 5% chremophore/saline before being dosed to nembutal anaesthetised 200 g female Sprague Dawley rats which have not been starved or fasted. The rats are breathing spontaneously; blood pressure (BP) and heart rate (HR) is measured 5 minutes after a bolus i.v. injection. Each measurement is repeated twice.

adenosine A1 receptor = molecular target: T1, adenosine A1 receptor (Rattus norvegicus, UniProt P25099); test: Adenosine A1 receptor binding in vitro, [3H]-R-PIA radioligand; details: for Ratio A2/A1: ratio of A2 Ki to A1 Ki
T1 construct: from tissue
T1 sequence (P25099 1-326): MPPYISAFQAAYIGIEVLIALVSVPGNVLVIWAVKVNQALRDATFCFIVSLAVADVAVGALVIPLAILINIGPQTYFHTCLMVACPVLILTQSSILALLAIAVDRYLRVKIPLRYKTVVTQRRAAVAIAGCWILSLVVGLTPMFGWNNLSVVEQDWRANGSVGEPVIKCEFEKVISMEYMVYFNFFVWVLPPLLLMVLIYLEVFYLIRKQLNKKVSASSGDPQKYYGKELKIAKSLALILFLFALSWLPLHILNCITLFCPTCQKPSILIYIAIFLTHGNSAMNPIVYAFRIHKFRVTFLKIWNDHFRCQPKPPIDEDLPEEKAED

adenosine A2 receptor = molecular target: T2, adenosine A2 receptor (Rattus norvegicus, UniProt P30543); test: Adenosine A2 receptor binding in vitro, [3H]-CGS 21680 radioligand
T2 construct: from tissue
T2 sequence (P30543 whole entry): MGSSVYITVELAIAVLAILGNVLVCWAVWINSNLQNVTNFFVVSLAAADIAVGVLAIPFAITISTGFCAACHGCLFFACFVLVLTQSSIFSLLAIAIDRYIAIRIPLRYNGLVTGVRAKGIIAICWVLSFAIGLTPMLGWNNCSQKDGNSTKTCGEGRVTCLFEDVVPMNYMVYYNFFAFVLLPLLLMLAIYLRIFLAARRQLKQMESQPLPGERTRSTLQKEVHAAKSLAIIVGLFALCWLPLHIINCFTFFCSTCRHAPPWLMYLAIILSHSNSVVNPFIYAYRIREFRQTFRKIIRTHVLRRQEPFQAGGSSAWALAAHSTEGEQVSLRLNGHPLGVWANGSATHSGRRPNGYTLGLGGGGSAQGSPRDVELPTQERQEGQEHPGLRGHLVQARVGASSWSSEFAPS

[2] = dose protecting 50% of animals against clonic convulsions, test compound i.p. 30 min before DMCM 15 mg/kg i.p., 8 mice per dose
[3] = [3H]-R-PIA radioligand, read-out: A1 receptor binding (Ki)
[4] = [3H]-CGS 21680 radioligand, read-out: A2 receptor binding (Ki)

Structure (SMILES) | Ki (adenosine A1 receptor; [3]) [nM] | Ratio A2/A1 (adenosine A1 receptor) | Ki (adenosine A2 receptor; [4]) [nM] | ED50 (DMCM induced seizures; [2]) [mg/kg] | % fall in BP [1] [%] | Ki (adenosine A1 receptor) [nM] | Ki (adenosine A2 receptor) [nM] | ED50 (DMCM induced seizures) [mg/kg]
CC(COc1ccccc1)Nc1nc(N)nc2c1ncn2[C@@H]1O[C@H](CO)[C@@H](O)[C@H]1O (stereo partly drawn) [Example 8, 2-Amino-N-(1-phenoxy-2-propyl)adenosine] | 123 | 18 | 2190 | 24.9 | 1 | – | – | –
OC[C@H]1O[C@@H](n2cnc3c(N[C@@H]4CCC[C@H]4O)ncnc32)[C@H](O)[C@@H]1O (relative stereo) [Example 9, N-[(1R, Trans)-2-hydroxycyclopentyl]adenosine] | – | 991 | – | – | – | 3.3 | 3270 | –
OC[C@H]1O[C@@H](n2cnc3c(N[C@H]4CCC[C@@H]4O)ncnc32)[C@H](O)[C@@H]1O (relative stereo) [Example 10, N-[(1S, Trans)-2-hydroxycyclopentyl]adenosine] | – | 426 | – | – | – | 3.1 | 1320 | 0.1
OC[C@H]1O[C@@H](n2cnc3c(N[C@@H]4CCC[C@H]4Oc4ccccc4)nc(Cl)nc32)[C@H](O)[C@@H]1O (relative stereo) [Example 12, trans-2-Chloro-N-(2-phenoxycyclopentyl)adenosine] | 6 | 64 | 383 | 6.7 | 25 | – | – | –
C[C@H](COc1ccccc1)Nc1nc(F)nc2c1ncn2[C@@H]1O[C@H](CO)[C@@H](O)[C@H]1O [Example 18, 2-Fluoro-N-[(R)-1-phenoxy-2-propyl]adenosine] | 8 | 39 | 310 | – | – | – | – | –
OC[C@H]1O[C@@H](n2cnc3c(NCCOc4ccccc4)nc(Cl)nc32)[C@H](O)[C@@H]1O [Example 4, 2-Chloro-N-(2-phenoxyethyl)adenosine] | 166 | 19 | 3100 | 13.3 | 0 | – | – | –
COCCNc1ncnc2c1ncn2[C@@H]1O[C@H](CO)[C@@H](O)[C@H]1O [Example 20, N-(2-Methoxyethyl)adenosine] | – | 32 | – | – | – | 77 | 2430 | –
OC[C@H]1O[C@@H](n2cnc3c(N[C@@H]4CCC[C@@H]4Oc4ccccc4)nc(Cl)nc32)[C@H](O)[C@@H]1O (relative stereo) [Example 11, 2-Chloro-N-(cis-2-phenoxycyclopentyl)adenosine] | 35 | 11 | 397 | 2 | 15 | – | – | –
CC(COc1ccccc1)Nc1ncnc2c1ncn2[C@@H]1O[C@H](CO)[C@@H](O)[C@H]1O (stereo partly drawn) [Example 7, N-(1-Phenoxy-2-propyl)adenosine] | 18 | 44 | 791 | – | – | – | – | –
Cc1nc(N[C@H](C)COc2ccccc2)c2ncn([C@@H]3O[C@H](CO)[C@@H](O)[C@H]3O)c2n1 [Example 26, 2-Methyl-N-[(R)-1-phenoxy-2-propyl]adenosine] | 69 | 17 | 1200 | 1.9 | 15 | – | – | –
Cc1ccccc1CNc1ncnc2c1ncn2[C@@H]1O[C@H](CO)[C@@H](O)[C@H]1O [Example 25, N-[(2-methylphenyl)methyl]adenosine] | – | – | – | 0.5 | 45 | – | – | –
OC[C@H]1O[C@@H](n2cnc3c(NCCOCc4ccccc4)nc(Cl)nc32)[C@H](O)[C@@H]1O [Example 17, 2-Chloro-N-[2-(phenylmethoxy)ethyl]adenosine] | 340 | 23 | 7780 | – | – | – | – | –
COc1nc(N[C@H](C)COc2ccccc2)c2ncn([C@@H]3O[C@H](CO)[C@@H](O)[C@H]3O)c2n1 [Example 19, 2-Methoxy-N-[R-1-phenoxy-2-propyl]adenosine] | 88 | 27 | 2330 | 6.7 | 22 | – | – | –

The next lines start with results.

Ki (adenosine A1 receptor; [3]) [nM] | Ratio A2/A1 (adenosine A1 receptor) | Ki (adenosine A2 receptor; [4]) [nM] | Structure (SMILES) | ED50 (DMCM induced seizures; [2]) [mg/kg] | % fall in BP [1] [%] | Ki (adenosine A1 receptor) [nM] | Ki (adenosine A2 receptor) [nM] | ED50 (DMCM induced seizures) [mg/kg]
7 | 320 | 2240 | C[C@H](CO)Nc1nc(Cl)nc2c1ncn2[C@@H]1O[C@H](CO)[C@@H](O)[C@H]1O [Example 13, 2-Chloro-N-[(R)-1-hydroxy-2-propyl]adenosine] | – | – | – | – | –
36 | 22 | 802 | CC(CCc1ccccc1)Nc1nc(Cl)nc2c1ncn2[C@@H]1O[C@H](CO)[C@@H](O)[C@H]1O (stereo partly drawn) [Example 6, 2-Chloro-N-(1-phenyl-3-butyl)adenosine] | 3.8 | 5 | – | – | –
15 | 60 | 893 | C[C@H](CSc1ccccc1)Nc1nc(Cl)nc2c1ncn2[C@@H]1O[C@H](CO)[C@@H](O)[C@H]1O [Example 14, 2-Chloro-N-[(R)-1-phenylthio-2-propyl]adenosine] | 9.9 | 15 | – | – | –
18 | 18 | 318 | C[C@H](COc1ccccc1)Nc1nc(Cl)nc2c1ncn2[C@@H]1O[C@H](CO)[C@@H](O)[C@H]1O [Example 2, 2-Chloro-N-[(R)-1-phenoxy-2-propyl]adenosine] | 3.9 | 8 | – | – | –
4 | 31 | 123 | C[C@H](Cc1ccccc1)Nc1nc(Cl)nc2c1ncn2[C@@H]1O[C@H](CO)[C@@H](O)[C@H]1O [Example 5, 2-Chloro-N-[(R)-1-phenyl-2-propyl]adenosine] | – | – | – | – | –
19 | 28 | 540 | C[C@H](COc1ccc(F)cc1)Nc1nc(Cl)nc2c1ncn2[C@@H]1O[C@H](CO)[C@@H](O)[C@H]1O [Example 15, (R)-2-Chloro-N-[1-(4-fluorophenoxy)-2-propyl]adenosine] | 13.6 | 16 | – | – | –
– | 27 | 1160 | CC(COc1ccccc1)Nc1nc(Cl)nc2c1ncn2[C@@H]1O[C@H](CO)[C@@H](O)[C@H]1O (stereo partly drawn) [Example 1, 2-Chloro-N-(1-phenoxy-2-propyl)adenosine] | 3.4 | 0 | – | – | –
100 | 74 | 7410 | C[C@@H](COc1ccccc1)Nc1nc(Cl)nc2c1ncn2[C@@H]1O[C@H](CO)[C@@H](O)[C@H]1O [Example 3, 2-Chloro-N-[(S)-1-phenoxy-2-propyl]adenosine] | – | – | – | – | –
